Measured values published in ChEMBL document CHEMBL3045635, “Synthesis and in vitro antimicrobial evaluation of novel 2-amino-6-(phenylthio)-4-(2-(phenylthio)quinolin-3-yl)pyridine-3,5-dicarbonitriles” (2013).
≈ marks a conversion by molar mass, not a printed value.

Tests used:
Type in all cases: functional
Aspergillus fumigatus = assay: Antifungal activity against Aspergillus fumigatus MTCC 3008 after 48 hr by broth microdilution method
Vibrio cholerae = assay: Antibacterial activity against Vibrio cholerae MTCC 3906 after 24 hr by broth microdilution method; conditions: MTCC 3906, 24 h
Escherichia coli = assay: Antibacterial activity against Escherichia coli MTCC 443 after 24 hr by broth microdilution method; conditions: MTCC 443, 24 h
Salmonella typhi = assay: Antibacterial activity against Salmonella enterica subsp. enterica serovar Typhi MTCC 98 after 24 hr by broth microdilution method; conditions: MTCC 98, 24 h
Bacillus subtilis = assay: Antibacterial activity against Bacillus subtilis MTCC 441 after 24 hr by broth microdilution method; conditions: MTCC 441, 24 h
Clostridium tetani = assay: Antibacterial activity against Clostridium tetani MTCC 449 after 24 hr by broth microdilution method; conditions: MTCC 449, 24 h
Streptococcus pneumoniae = assay: Antibacterial activity against Streptococcus pneumoniae MTCC 1936 after 24 hr by broth microdilution method; conditions: MTCC 1936, 24 h
Candida albicans = assay: Antifungal activity against Candida albicans MTCC 227 after 48 hr by broth microdilution method

Molecule	MIC (Aspergillus fumigatus; MTCC 3008, 48 h) [µg/mL]	MIC (Vibrio cholerae) [µg/mL]	MIC (Escherichia coli) [µg/mL]	MIC (Salmonella typhi) [µg/mL]	MIC (Bacillus subtilis) [µg/mL]	MIC (Clostridium tetani) [µg/mL]	MIC (Streptococcus pneumoniae) [µg/mL]	MIC (Candida albicans; MTCC 227, 48 h) [µg/mL]	MIC (Aspergillus fumigatus) [µg/mL]	MIC (Candida albicans) [µg/mL]
Cc1ccc(Sc2nc(N)c(C#N)c(-c3cc4ccccc4nc3Sc3ccccc3)c2C#N)cc1	250 (≈ 498 µM)	250 (≈ 498 µM)	100 (≈ 199 µM)	125 (≈ 249 µM)	200 (≈ 399 µM)	250 (≈ 498 µM)	250 (≈ 498 µM)	1000 (≈ 1990 µM)		
Cc1ccc(Sc2nc3ccc(C)cc3cc2-c2c(C#N)c(N)nc(Sc3ccc(C)cc3)c2C#N)cc1	1000 (≈ 1890 µM)	250 (≈ 472 µM)	200 (≈ 378 µM)	125 (≈ 236 µM)	100 (≈ 189 µM)	250 (≈ 472 µM)	200 (≈ 378 µM)	250 (≈ 472 µM)		
N#Cc1c(N)nc(Sc2ccccc2)c(C#N)c1-c1cc2ccccc2nc1Sc1ccccc1	500 (≈ 1030 µM)	200 (≈ 410 µM)	250 (≈ 513 µM)	200 (≈ 410 µM)	500 (≈ 1030 µM)	500 (≈ 1030 µM)	500 (≈ 1030 µM)	250 (≈ 513 µM)		
CCn1cc(C(=O)O)c(=O)c2cc(F)c(N3CCNCC3)cc21 [NORFLOXACIN]		10 (≈ 31.3 µM)	10 (≈ 31.3 µM)	10 (≈ 31.3 µM)	100 (≈ 313 µM)	50 (≈ 157 µM)	10 (≈ 31.3 µM)			
Cc1ccc2nc(Sc3ccccc3)c(-c3c(C#N)c(N)nc(Sc4ccc(Cl)cc4)c3C#N)cc2c1	250 (≈ 466 µM)	200 (≈ 373 µM)	50 (≈ 93.3 µM)	100 (≈ 187 µM)	500 (≈ 933 µM)	200 (≈ 373 µM)	500 (≈ 933 µM)	> 1000		
Cc1ccc(Sc2nc3ccc(C)cc3cc2-c2c(C#N)c(N)nc(Sc3ccc(Cl)cc3)c2C#N)cc1	> 1000	200 (≈ 364 µM)	100 (≈ 182 µM)	100 (≈ 182 µM)	250 (≈ 454 µM)	100 (≈ 182 µM)	250 (≈ 454 µM)	1000 (≈ 1820 µM)		
Cc1ccc(Sc2nc3ccccc3cc2-c2c(C#N)c(N)nc(Sc3ccc(C)cc3)c2C#N)cc1	1000 (≈ 1940 µM)	200 (≈ 388 µM)	250 (≈ 485 µM)	250 (≈ 485 µM)	250 (≈ 485 µM)	250 (≈ 485 µM)	200 (≈ 388 µM)	1000 (≈ 1940 µM)		
NYSTATIN									100	100
Cc1ccc(Sc2nc(N)c(C#N)c(-c3cc4cc(C)ccc4nc3Sc3ccc(Cl)cc3)c2C#N)cc1	250 (≈ 454 µM)	250 (≈ 454 µM)	200 (≈ 364 µM)	200 (≈ 364 µM)	100 (≈ 182 µM)	250 (≈ 454 µM)	100 (≈ 182 µM)	> 1000		
O=Cc1cc2ccccc2nc1Sc1ccccc1	1000 (≈ 3770 µM)	200 (≈ 754 µM)	200 (≈ 754 µM)	250 (≈ 942 µM)	200 (≈ 754 µM)	250 (≈ 942 µM)	200 (≈ 754 µM)	250 (≈ 942 µM)		
Cc1ccc2nc(Sc3ccc(Cl)cc3)c(-c3c(C#N)c(N)nc(Sc4ccccc4)c3C#N)cc2c1	> 1000	100 (≈ 187 µM)	62.5 (≈ 117 µM)	200 (≈ 373 µM)	250 (≈ 466 µM)	250 (≈ 466 µM)	250 (≈ 466 µM)	1000 (≈ 1870 µM)		
CC1(C)S[C@@H]2[C@H](NC(=O)[C@H](N)c3ccccc3)C(=O)N2[C@H]1C(=O)O [AMPICILLIN]		100 (≈ 286 µM)	100 (≈ 286 µM)	100 (≈ 286 µM)	250 (≈ 715 µM)	250 (≈ 715 µM)	100 (≈ 286 µM)			
Cc1ccc(Sc2nc(N)c(C#N)c(-c3cc4ccccc4nc3Sc3ccc(Cl)cc3)c2C#N)cc1	> 1000	200 (≈ 373 µM)	62.5 (≈ 117 µM)	100 (≈ 187 µM)	100 (≈ 187 µM)	250 (≈ 466 µM)	200 (≈ 373 µM)	250 (≈ 466 µM)		
Cc1ccc(Sc2nc3ccccc3cc2-c2c(C#N)c(N)nc(Sc3ccc(Cl)cc3)c2C#N)cc1	> 1000	200 (≈ 373 µM)	200 (≈ 373 µM)	200 (≈ 373 µM)	200 (≈ 373 µM)	100 (≈ 187 µM)	250 (≈ 466 µM)	> 1000		
Cc1ccc(Sc2nc3ccc(C)cc3cc2C=O)cc1	250 (≈ 852 µM)	125 (≈ 426 µM)	250 (≈ 852 µM)	200 (≈ 682 µM)	250 (≈ 852 µM)	250 (≈ 852 µM)	250 (≈ 852 µM)	500 (≈ 1700 µM)		
Cc1ccc2nc(Sc3ccccc3)c(-c3c(C#N)c(N)nc(Sc4ccccc4)c3C#N)cc2c1	250 (≈ 498 µM)	250 (≈ 498 µM)	200 (≈ 399 µM)	200 (≈ 399 µM)	250 (≈ 498 µM)	250 (≈ 498 µM)	250 (≈ 498 µM)	1000 (≈ 1990 µM)		
Cc1ccc2nc(Sc3ccc(Cl)cc3)c(C=O)cc2c1	1000 (≈ 3190 µM)	100 (≈ 319 µM)	100 (≈ 319 µM)	125 (≈ 398 µM)	500 (≈ 1590 µM)	500 (≈ 1590 µM)	500 (≈ 1590 µM)	200 (≈ 637 µM)		
N#Cc1c(N)nc(Sc2ccc(Cl)cc2)c(C#N)c1-c1cc2ccccc2nc1Sc1ccccc1	1000 (≈ 1920 µM)	250 (≈ 479 µM)	250 (≈ 479 µM)	250 (≈ 479 µM)	250 (≈ 479 µM)	200 (≈ 383 µM)	500 (≈ 958 µM)	1000 (≈ 1920 µM)		
Cc1ccc(Sc2nc3ccccc3cc2C=O)cc1	200 (≈ 716 µM)	250 (≈ 895 µM)	200 (≈ 716 µM)	250 (≈ 895 µM)	250 (≈ 895 µM)	250 (≈ 895 µM)	250 (≈ 895 µM)	1000 (≈ 3580 µM)		
Cc1ccc2nc(Sc3ccc(Cl)cc3)c(-c3c(C#N)c(N)nc(Sc4ccc(Cl)cc4)c3C#N)cc2c1	500 (≈ 876 µM)	200 (≈ 351 µM)	50 (≈ 87.6 µM)	100 (≈ 175 µM)	500 (≈ 876 µM)	500 (≈ 876 µM)	500 (≈ 876 µM)	500 (≈ 876 µM)		
Cc1ccc2nc(Sc3ccccc3)c(C=O)cc2c1	> 1000	250 (≈ 895 µM)	200 (≈ 716 µM)	200 (≈ 716 µM)	500 (≈ 1790 µM)	250 (≈ 895 µM)	500 (≈ 1790 µM)	> 1000		
O=Cc1cc2ccccc2nc1Sc1ccc(Cl)cc1	> 1000	200 (≈ 667 µM)	250 (≈ 834 µM)	250 (≈ 834 µM)	250 (≈ 834 µM)	200 (≈ 667 µM)	100 (≈ 334 µM)	1000 (≈ 3340 µM)		
O=C(O)c1cn(C2CC2)c2cc(N3CCNCC3)c(F)cc2c1=O [CIPROFLOXACIN]		25 (≈ 75.4 µM)	25 (≈ 75.4 µM)	25 (≈ 75.4 µM)			50 (≈ 151 µM)			
N#Cc1c(N)nc(Sc2ccc(Cl)cc2)c(C#N)c1-c1cc2ccccc2nc1Sc1ccc(Cl)cc1	1000 (≈ 1800 µM)	200 (≈ 359 µM)	200 (≈ 359 µM)	200 (≈ 359 µM)	250 (≈ 449 µM)	500 (≈ 898 µM)	100 (≈ 180 µM)	500 (≈ 898 µM)		
COC1=CC(=O)C[C@@H](C)[C@]12Oc1c(Cl)c(OC)cc(OC)c1C2=O [GRISEOFULVIN]	100 (≈ 283 µM)							500 (≈ 1420 µM)		
Cc1ccc(Sc2nc3ccccc3cc2-c2c(C#N)c(N)nc(Sc3ccccc3)c2C#N)cc1	> 1000	200 (≈ 399 µM)	200 (≈ 399 µM)	125 (≈ 249 µM)	250 (≈ 498 µM)	200 (≈ 399 µM)	250 (≈ 498 µM)	500 (≈ 997 µM)		
N#Cc1c(N)nc(Sc2ccccc2)c(C#N)c1-c1cc2ccccc2nc1Sc1ccc(Cl)cc1	1000 (≈ 1920 µM)	100 (≈ 192 µM)	100 (≈ 192 µM)	200 (≈ 383 µM)	100 (≈ 192 µM)	200 (≈ 383 µM)	200 (≈ 383 µM)	200 (≈ 383 µM)		
Cc1ccc(Sc2nc(N)c(C#N)c(-c3cc4cc(C)ccc4nc3Sc3ccccc3)c2C#N)cc1	500 (≈ 970 µM)	500 (≈ 970 µM)	250 (≈ 485 µM)	100 (≈ 194 µM)	500 (≈ 970 µM)	200 (≈ 388 µM)	250 (≈ 485 µM)	1000 (≈ 1940 µM)		
Cc1ccc(Sc2nc3ccc(C)cc3cc2-c2c(C#N)c(N)nc(Sc3ccccc3)c2C#N)cc1	500 (≈ 970 µM)	250 (≈ 485 µM)	100 (≈ 194 µM)	200 (≈ 388 µM)	250 (≈ 485 µM)	500 (≈ 970 µM)	250 (≈ 485 µM)	> 1000		
